# System: Glucokinase known as hexokinase IV (human GK isoform 1, pancreas form and human GK isoform 2, liver form)
# Assay: Glucokinase enzymatic activity assay (G6PDH-coupled, NADH absorbance at 340 nm)
# Type: biochemical
# Settings: 5 mM glucose, 1 mM ATP, 37 nM GK, 10 min at room temperature
# Procedure, shortened: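 His-tagged human GK isoform 1 (pancreas) or 2 (liver), E. coli-expressed and Ni-purified, 37 nM, with 5 mM glucose, 1 mM ATP, 1 mM NAD and G6PDH in 25 mM Hepes/KCl, 2 mM MgCl2, 1 mM DTT. Ran 10 min at room temperature, read as NADH at 340 nm. AC1.5 is the compound concentration giving 1.5-fold activity.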
row,SMILES,AC1.5 (the compound concentration at which the enzymatic activity is increased by 1.5 times) [nM]
1,"CC(=O)N1CCN(C(=O)C[C@@H]2CSC(c3cc4cc(F)cc(NC5CCCC5)c4[nH]3)=N2)CC1 [Example 86, 1-(4-acetyl-piperazin-1-yl)-2-[(R)-2-(7-cyclopentylamino-5-fluoro-1H-indol-2-yl)-4,5-dihydro-thiazol-4-yl]-ethanone]",23
2,"CNC(=O)C[C@@H]1CSC(c2cc3cc(OC)cc(NC4CCCC4)c3[nH]2)=N1 [Example 87, 2-[(R)-2-(7-cyclopentylamino-5-methoxy-1H-indol-2-yl)-4,5-dihydro-thiazol-4-yl]-N-methyl-acetamide]",10
3,"COc1cc(NC2CCCC2)c2[nH]c(C3=N[C@H](CC(=O)N4CCOCC4)CS3)cc2c1 [Example 88, 2-[(R)-2-(7-cyclopentylamino-5-methoxy-1H-indol-2-yl)-4,5-dihydro-thiazol-4-yl]-1-morpholin-4-yl-ethanone]",19
4,"CCNC(=O)C[C@@H]1CSC(c2cc3cccc(NC4CCCC4)c3[nH]2)=N1 [Example 89, 2-[(R)-2-(7-cyclopentylamino-1H-indol-2-yl)-4,5-dihydro-thiazol-4-yl]-N-ethyl-acetamide]",32
5,"CNC(=O)C[C@@H]1CSC(c2cc3cccc(NC4CCCC4)c3[nH]2)=N1 [Example 90, 2-[(R)-2-(7-cyclopentylamino-1H-indol-2-yl)-4,5-dihydro-thiazol-4-yl]-N-methyl-acetamide]",37
6,"O=C(C[C@@H]1CSC(c2cc3cccc(NC4CCCC4)c3[nH]2)=N1)N1CCOCC1 [Example 91, 2-[(R)-2-(7-cyclopentylamino-1H-indol-2-yl)-4,5-dihydro-thiazol-4-yl]-1-morpholin-4-yl-ethanone]",72
7,"CNC(=O)C[C@@H]1CSC(c2cc3cccc(NC4CCOCC4)c3[nH]2)=N1 [Example 92, N-methyl-2-{(R)-2-[7-(tetrahydro-pyran-4-ylamino)-1H-indol-2-yl]-4,5-dihydro-thiazol-4-yl}-acetamide]",112
8,"O=C(C[C@@H]1CSC(c2cc3cccc(NC4CCOCC4)c3[nH]2)=N1)N1CCOCC1 [Example 93, 1-morpholin-4-yl-2-{(R)-2-[7-(tetrahydro-pyran-4-ylamino)-1H-indol-2-yl]-4,5-dihydro-thiazol-4-yl}-ethanone]",239
9,"CN(C)CC[C@@H]1CSC(c2cc3cc(Cl)cc(NC4CCCC4)c3[nH]2)=N1 [Example 94, {5-chloro-2-[(R)-4-(2-dimethylamino-ethyl)-4,5-dihydro-thiazol-2-yl]-1H-indol-7-yl}-cyclopentyl-amine]",15
10,"CC(=O)N1CCN(CC[C@@H]2CSC(c3cc4cc(Cl)cc(NC5CCCC5)c4[nH]3)=N2)CC1 [Example 97, 1-(4-{2-[(R)-2-(5-chloro-7-cyclopentylamino-1H-indol-2-yl)-4,5-dihydro-thiazol-4-yl]-ethyl}-piperazin-1-yl)-ethanone]",6
11,"CCS(=O)(=O)N1CCN(CC[C@@H]2CSC(c3cc4cc(Cl)cc(NC5CCCC5)c4[nH]3)=N2)CC1 [Example 98, (5-chloro-2-{(R)-4-[2-(4-ethanesulfonyl-piperazin-1-yl)-ethyl]-4,5-dihydro-thiazol-2-yl}-1H-indol-7-yl)-cyclopentyl-amine]",7
12,"CN1CCN(CC[C@@H]2CSC(c3cc4cc(Cl)cc(NC5CCCC5)c4[nH]3)=N2)CC1 [Example 100, (5-chloro-2-{(R)-4-[2-(4-methyl-piperazin-1-yl)-ethyl]-4,5-dihydro-thiazol-2-yl}-1H-indol-7-yl)-cyclopentyl-amine]",11
13,"OC1CCN(CC[C@@H]2CSC(c3cc4cc(Cl)cc(NC5CCCC5)c4[nH]3)=N2)CC1 [Example 101, 1-{2-[(R)-2-(5-chloro-7-cyclopentylamino-1H-indol-2-yl)-4,5-dihydro-thiazol-4-yl]-ethyl}-piperidin-4-ol]",10
14,O=C1CN(CC[C@@H]2CSC(c3cc4cc(Cl)cc(NC5CCCC5)c4[nH]3)=N2)CCN1 [Example 102],7
15,"CN(C)C1CCN(CC[C@@H]2CSC(c3cc4cc(Cl)cc(NC5CCCC5)c4[nH]3)=N2)C1 (stereo partly drawn) [Example 103, (5-chloro-2-{(R)-4-[2-(3-dimethylamino-pyrrolidin-1-yl)-ethyl]-4,5-dihydro-thiazol-2-yl}-1H-indol-7-yl)-cyclopentyl-amine]",16
16,"Clc1cc(NC2CCCC2)c2[nH]c(C3=N[C@H](CCN4CCCCC4)CS3)cc2c1 [Example 104, {5-chloro-2-[(R)-4-(2-piperidin-1-yl-ethyl)-4,5-dihydro-thiazol-2-yl]-1H-indol-7-yl}-cyclopentyl-amine]",13
17,"O=S1(=O)CCN(CC[C@@H]2CSC(c3cc4cc(Cl)cc(NC5CCCC5)c4[nH]3)=N2)CC1 [Example 105, (5-chloro-2-{(R)-4-[2-(1,1-dioxo-thiomorpholin-4-yl)-ethyl]-4,5-dihydro-thiazol-2-yl}-1H-indol-7-yl)-cyclopentyl-amine]",6
18,"Clc1cc(NC2CCCC2)c2[nH]c(C3=N[C@H](CCn4cccn4)CS3)cc2c1 [Example 106, {5-chloro-2-[(R)-4-(2-pyrazol-1-yl-ethyl)-4,5-dihydro-thiazol-2-yl]-1H-indol-7-yl}-cyclopentyl-amine]",14
19,"O=C(O)[C@@H]1CCCN1CC[C@@H]1CSC(c2cc3cc(Cl)cc(NC4CCCC4)c3[nH]2)=N1 [Example 107, (S)-1-{2-[(R)-2-(5-chloro-7-cyclopentylamino-1H-indol-2-yl)-4,5-dihydro-thiazol-4-yl]-ethyl}-pyrrolidine-2-carboxylic acid]",63
20,"CS(=O)(=O)CC[C@@H]1CSC(c2cc3cc(Cl)cc(NC4CCCC4)c3[nH]2)=N1 [Example 108, {5-chloro-2-[(R)-4-(2-methanesulfonyl-ethyl)-4,5-dihydro-thiazol-2-yl]-1H-indol-7-yl}-cyclopentyl-amine]",15
21,"CCOC(=O)c1c(C)ncn1CC[C@@H]1CSC(c2cc3cc(Cl)cc(NC4CCCC4)c3[nH]2)=N1 [Example 109, 3-{2-[(R)-2-(5-chloro-7-cyclopentylamino-1H-indol-2-yl)-4,5-dihydro-thiazol-4-yl]-ethyl}-5-methyl-3H-imidazole-4-carboxylic acid ethyl ester]",26
22,"Cc1ncn(CC[C@@H]2CSC(c3cc4cc(Cl)cc(NC5CCCC5)c4[nH]3)=N2)c1C(=O)O [Example 110, 3-{2-[(R)-2-(5-chloro-7-cyclopentylamino-1H-indol-2-yl)-4,5-dihydro-thiazol-4-yl]-ethyl}-5-methyl-3H-imidazole-4-carboxylic acid]",30
23,"O=C1CCCN1CC[C@@H]1CSC(c2cc3cc(Cl)cc(NC4CCCC4)c3[nH]2)=N1 [Example 111, 1-{2-[(R)-2-(5-chloro-7-cyclopentylamino-1H-indol-2-yl)-4,5-dihydro-thiazol-4-yl]-ethyl}-pyrrolidin-2-one]",11
24,"O=C(O)C1CCCN(CC[C@@H]2CSC(c3cc4cc(Cl)cc(NC5CCOCC5)c4[nH]3)=N2)C1 (stereo partly drawn) [Example 112, 1-(2-{(R)-2-[5-chloro-7-(tetrahydro-pyran-4-ylamino)-1H-indol-2-yl]-4,5-dihydro-thiazol-4-yl}-ethyl)-piperidine-3-carboxylic acid]",81
25,"O=C(c1ccco1)N1CCN(CC[C@@H]2CSC(c3cc4cc(Cl)cc(NC5CCOCC5)c4[nH]3)=N2)CC1 [Example 121, [4-(2-{(R)-2-[5-chloro-7-(tetrahydro-pyran-4-ylamino)-1H-indol-2-yl]-4,5-dihydro-thiazol-4-yl}-ethyl)-piperazin-1-yl]-furan-2-yl-methanone]",40
26,"Clc1cc(NC2CCOCC2)c2[nH]c(C3=N[C@H](CCN4CCN(c5cnccn5)CC4)CS3)cc2c1 [Example 122, (5-chloro-2-{(R)-4-[2-(2,3,5,6-tetrahydro-[1,2′]bipyrazinyl-4-yl)-ethyl]-4,5-dihydro-thiazol-2-yl}-1H-indol-7-yl)-(tetrahydropyran-4-yl)-amine]",60
27,"Clc1cc(NC2CCOCC2)c2[nH]c(C3=N[C@H](CCN4CCN(c5ncccn5)CC4)CS3)cc2c1 [Example 123, (5-chloro-2-{(R)-4-[2-(4-pyrimidin-2-yl-piperazin-1-yl)-ethyl]-4,5-dihydro-thiazol-2-yl}-1H-indol-7-yl)-(tetrahydro-pyran-4-yl)-amine]",62
28,"NCC[C@@H]1CSC(c2cc3cc(F)cc(NC4CCCC4)c3[nH]2)=N1 [Example 124, {2-[(R)-4-(2-amino-ethyl)-4,5-dihydro-thiazol-2-yl]-5-fluoro-1H-indol-7-yl}-cyclopentyl-amine]",24

# From patent publication US8309586B2, “Glucokinase activators and pharmaceutical compositions containing the same as an active ingredient” (LG Life Sciences Ltd., priority 2007, dated 2012)
